Assay results published in US7160923B1, “Polyamine analogues as therapeutic and diagnostic agents” (MediQuest Therapeutics, Inc., priority 1997, dated 2007).

Tests used:
[1] = system: polyamine transporter (PATr); experiment: Polyamine transport (PAT) inhibition assay in MDA-MB-231 cells; type: cell-based, human
Protocol: (§1) In a conventional radiometric assay, the cells are incubated under growth conditions with [5,8-^14C]spermine in serum-free medium for varying intervals. Cells are plated at a known density in 24 well plates in standard tissue culture medium and allowed to adhere and grow for 15–96 hours. Due to the low signal of the radiolabel in this assay, 96 or […] well microplates cannot be used in this assay, creating a major bottleneck for throughput. Cell numbers are determined, and the plate is placed in a temperature controlled system at 37° C. Aminoguanidine is added to the medium to a final concentration of 1 mM. […] The assay is initiated by the mixing of the inhibitor and radioligand. The cells are incubated for an interval of about 1–60 minutes depending on cell type. The assay is terminated by removing the medium and cooling the plates to 4° C. The cells are then washed with cold medium three times, dissolved in 0.1% sodium dodecylsulfate, and the radioactivity in solution is determined by scintillation counting.
Therefore, the growth assay and a kinetic transport assay have been used to validate transport inhibition. […]

[2] = system: polyamine transporter (PATr); experiment: Radiometric polyamine transport (PAT) assay in A172 cells; type: cell-based
Protocol: as §1, with “In a conventional radiometric assay, the cells are incubated under growth conditions with [5,8-^14C]spermine in serum-free medium for varying intervals.” left out

cultured cells = experiment: Fluorescent microscopic analysis of monodansylspermine uptake; type: cell-based
Protocol: Cells were plated in a sterile chambered slide and grown for 15–48 hours to assure adherence of cells to the slide. The medium was removed and replaced with fresh medium containing 1 μM MDS for a 10 minute incubation period at 37° C. The medium was then removed and the cells washed 3 times with phosphate buffered saline. Glycerol (50% v/v) in a volume of […] was added to the chamber, and the slide was removed and covered with a cover slip.
Using a fluorescence microscope with filters set for excitation at 340 nm and emission at 530 nm, the slide was observed under normal light and with fluorescence. Uptake of the dansylated spermine was observed microscopically and recorded on photograph.

[3] = system: MDA-MB-231 human breast carcinoma cells; experiment: Growth assay of MDA-MB-231 cells with and without ODC inhibitor (DFMO), 1 μM spermidine; type: cell-based; settings: for R: ratio of the IC50 in the absence of DFMO over the IC50 in the presence of DFMO, MDA growth assay
Description: The ratio, R is the IC50 for […] relative to the IC50 for the polyamine analogue combined with an ODC inhibitor. This value of R, indicates the relative level of “synergism” between the polyamine analogue and ODC inhibitor.

[4] = system: murine L1210 leukemia cells; settings: cited from earlier work
neoplastic vessels = settings: one month of treatment, humans with cervical interepithelial neoplasia; cited from earlier work
[5] = target: spermidine/spermine acetyltransferase (SSAT) (Homo sapiens, UniProt P21673); experiment: Spermidine/spermine acetyltransferase (SSAT) enzyme assay; type: biochemical; settings: varying concentrations; 1 mM spermidine, 1 mM 14C-Acetyl CoA, pH 7.8
Protocol: A study was conducted to determine whether the compositions of the present invention, designed as PAT inhibitors, had other activities on the PA system. Specifically, the ability of DACS to inhibit an enzyme involved in PA recycling was evaluated. The method used was as described in Casero, R. A. et al., Biochem. J270:615–620 (1990) hereby incorporated by reference in its entirety. This assay measures the incorporation of ^14C-labeled acetyl CoA into spermidine to form acetylspermidine. Varying concentrations of DACS were added to a reaction mixture containing HEPES buffer, pH 7.8, 1 mM spermidine, and 1 mM ^14C-Acetyl CoA. The product is isolated by binding to phosphocellulose filter paper and the extent of reaction is determined by scintillation counting.

[6] = system: T-cell acute lymphoblastic leukemias (ALL), glioblastomas, prostate, and colon cell lines; experiment: In vitro test in combination with ODC inhibitors against several human cancer cell lines; type: cell-based
Protocol: DACS was tested in vitro in combination with ODC inhibitors against several human cancer cell lines. These include T-cell acute lymphoblastic leukemias (ALL), glioblastomas, prostate, and colon cell lines.

[7] = system: polyamine transporter (PATr); experiment: Polyamine transport (PAT) inhibition assay in MDA-MB-231 cells; type: cell-based, human; remark: listed apart in the source
cancer cells = settings: cited from earlier work
[8] = MDA-MB-231 cell PATr, read-out: Ki for the PATr
[9] = parallel library products, purity estimated greater than 80%, read-out: Ki μM, Inhibition of the Polyamine Transporter in MDA-MB-231 Cell Line

spermidine/spermine acetyltransferase (SSAT), sequence (P21673 whole entry, species assumed): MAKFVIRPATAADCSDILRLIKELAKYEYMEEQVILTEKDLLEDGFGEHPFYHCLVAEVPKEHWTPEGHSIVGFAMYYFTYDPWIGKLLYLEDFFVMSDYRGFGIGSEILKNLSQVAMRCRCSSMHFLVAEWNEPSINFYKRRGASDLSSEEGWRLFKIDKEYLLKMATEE

CN(C)c1cccc2c(S(=O)(=O)NCCCNCCCCNCCCN)cccc12 [Compound 3, N^1-dansylspermine]
Ki [1, 8]: 0.08 µM | displacement of 3H-spermidine in the transport assay ([2]; A172 cells): competitively displace | intracellular localization (cultured cells): localize specifically to the nucleoli and the nuclear membrane | uptake of the fluorescent probe into cells (cultured cells; 1 μM, 10 minute incubation at 37° C.): took up the labeled material

NCCCNCCCCNCCCNS(=O)(=O)c1ccc2ccccc2c1
Ki [1, 9]: 0.15 µM

NCCCNCCCCNCCCNS(=O)(=O)c1cccc2ccccc12
Ki [1, 9]: 0.19 µM

CN(C)CCCN1c2ccccc2CCc2ccccc21 [Compound 165, imipramine, reference compound]
inhibition of the PAT assay ([1]; MDA cell line): inhibited the PAT assay | Ki ([1]; MDA cells, read-out: Ki, non-competitive inhibitor of PAT): 0.5 µM | inhibition of polyamine transport ([1]; cell line not stated at the place (Example XXII: A172 and MDA)): inhibited polyamine transport | inhibition of the PAT assay ([2]; A172 cell line): inhibited the PAT assay | Ki ([2]; A172 cells, read-out: Ki, non-competitive inhibitor of PAT): 41 nM

CC1(C)C2CCC1(CS(=O)(=O)NCCCNCCCCNCCCN)C(=O)C2 (stereo not shown)
Ki [1, 9]: > 10 µM

NCCCNCCCCNCCCNS(=O)(=O)c1ccc2ccc3cccc4ccc1c2c34 [Compound 15, N^1-(1-pyrenylsulfonyl)spermine]
Ki [1, 8]: 0.091 µM

NCCCNCCCCNCCCNC(=O)CCCCCNS(=O)(=O)c1ccc(CNC(=O)c2ccc(Cl)cc2)s1 [Compound 5, N^1-[(N^6–5-(4-chlorobenzamidomethyl)-thiophene-2-sulfonyl)-6-aminocaproyl]spermine]
R [3]: 210

NCCCNCCCCNCCCNC(=O)CCCCCNS(=O)(=O)c1ccc2oc3ccccc3c2c1 [Compound 6]
R [3]: 220

NCCC[C@](N)(C(=O)O)C(F)F [DFMO, α-difluoromethylornithine]
survival ([4]; DFMO mice transplanted with PAT-deficient L1210 cells): > 60 days | time to death ([4]; mice with wild-type L1210 cells (intact PAT), treated with DFMO): 12 days | reduction in neoplastic vessel count (neoplastic vessels): 50%

CC1(C)C2CCC1(CS(=O)(=O)NCCCCN)C(=O)C2 (stereo not shown)
Ki [1, 9]: > 30 µM

NCCCCNS(=O)(=O)c1cccc2ccccc12
Ki [1, 9]: > 30 µM

CN(C)c1cccc2c(S(=O)(=O)NCCCCCC(=O)NCCCNCCCCNCCCN)cccc12 [Compound 4, N^1-[(N^6-dansyl)-6-aminocaproyl]spermine]
cell growth reduced ([3]; DACS plus ODC inhibitor in the presence of polyamines, by day 3): 69% | IC50 ([3]; Homo sapiens, MDA-MB-231, with ODC inhibitor, 1.0 μM supplemented polyamines, read-out: IC50 for growth in combination with an ODC inhibitor): 600 nM | concentration at which the compound alone becomes growth inhibitory ([3]; alone, without ODC inhibitor): 300 µM | prevention of rescue from ODC inhibition by natural polyamines ([3]; putrescine, spermidine, N1-acetylspermine and N1-acetylspermidine): prevents | R [3]: 400 | inhibition of SSAT enzymatic activity [5]: inhibited spermidine/spermine acetyltransferase (SSAT) in a dose-related manner | effectiveness against tumor cell lines in vitro [6]: effective against all these tumor cell lines in vitro | Ki ([7]; putrescine uptake, read-out: Ki, putrescine uptake): 5.4 nM | Ki ([7]; spermidine uptake, read-out: Ki, spermidine uptake): 8 nM

NCCCCNS(=O)(=O)c1ccc2ccccc2c1
Ki [1, 9]: 5 µM

NCCCCN(CCCN)CCCNC(=O)CCCc1ccc(N(CCCl)CCCl)cc1 [chlorambucil-spermidine conjugate]
fold increase in cytotoxicity compared to chlorambucil alone (cancer cells): ≤ 225 fold
